Test results reported in ChEMBL document CHEMBL1127164, “Dihydropyridine KATP potassium channel openers” (Bioorg Med Chem Lett, 1993).

What was measured:
Format in all cases: functional
Cavia porcellus [1] = species: Cavia porcellus; assay: The compound was tested for […] activity against guinea pig detrusor (bladder) strip mildly depolarized with 15 mM KCl
Cavia porcellus [2] = species: Cavia porcellus; assay: The compound was tested for […] activity against guinea pig vascular tissue (portal vein) strip mildly depolarized with 15 mM KCl
Cavia porcellus [3] = species: Cavia porcellus; assay: The compound was tested for […] activity against guinea pig detrusor (bladder) strip contracted with 80 mM KCl
Cavia porcellus [4] = species: Cavia porcellus; assay: Tested for percent increase of efflux rate constant of 50 uM of compound using guinea pig detrusor

| Structure (SMILES) | IC50 (Cavia porcellus [1]) [µM] | IC50 (Cavia porcellus [2]) [µM] | IC50 (Cavia porcellus [3]) [µM] | Increase (Cavia porcellus [4]) [%] |
| --- | --- | --- | --- | --- |
| O=C1CCCC2=C1C(c1cc([N+](=O)[O-])cs1)C1=C(O)CCCC1=N2 (stereo not drawn) | 0.16 | 0.009 | – | – |
| O=C1CCCC2=C1C(c1ccc(-c3ccccc3)cc1)C1=C(O)CCCC1=N2 (stereo not drawn) | 1.37 | – | – | – |
| COC(=O)C1=C(C)NC(C)=C(C(=O)OCCCN2CCC(c3ccccc3)(c3ccccc3)CC2)[C@@H]1c1cccc([N+](=O)[O-])c1 [DEXNIGULDIPINE] | > 30 | – | – | – |
| CC1=CC(c2cccc([N+](=O)[O-])c2)C2=C(O)CCCC2=N1 (stereo not drawn) | 0.66 | – | – | – |
| O=[N+]([O-])c1cccc(C2C3=C(CCCC3)N=C3CCCC(O)=C32)c1 (stereo not drawn) | 0.51 | – | – | – |
| O=C1CCCC2=C1C(c1cccc([N+](=O)[O-])c1)C1=C(O)CCCC1=N2 (stereo not drawn) | 4.44 | 0.1 | 47.8 | 30.7 |
| N#Cc1ccc(C2C3=C(O)CCCC3=NC3=C2C(=O)CCC3)cc1C(F)(F)F (stereo not drawn) | 0.42 | – | – | – |
| O=C1CCCC2=C1C(c1ccc(F)c(Cl)c1)C1=C(O)CCCC1=N2 (stereo not drawn) | 0.46 | – | – | – |
| COC(=O)C1=C(C)NC(C)=C(C(=O)OCCCN2CCC(c3ccccc3)(c3ccccc3)CC2)[C@H]1c1cccc([N+](=O)[O-])c1 [NIGULDIPINE] | > 30 | – | – | – |
